Measurements: patent US9457052B2, “Allograft tolerance induction” (The United States of America as Represented by the …, priority 2013, dated 2016)

System: C57BL/6 responder splenocytes with irradiated BALB/c stimulatory cells
Assay: Allo-MLR lymphocyte proliferation assay (3H-thymidine) with AMPs
Assay type: cell-based, mouse
Settings: 20 μM indomethacin alone
Experimental: FIG. 2. […] (A) Naive C57BL/6 splenocytes (as responders cells) were cultured 1:1 with irradiated (3 Gy) naïve BALB/c stimulatory cells. […] Cell proliferation was analyzed by 3H-thymidine incorporation during the last 18 h of a 5 day culture. Results are expressed as the mean percent alloproliferation inhibition of quadruplicate cultures. Data are representative of two independent experiments. (B) Cytokine analysis of 48 h culture supernatants obtained from mixed lymphocyte reaction assays. Data are presented as means±SD (n=3; P<0.05). (C) Representative flow cytometric analysis of splenic Tregs following 5 days of alto-MLR culture in the absence and presence of AMP co-culture. […] Quadrants are set according to isotype controls. Results shown are representative of three separate experiments. FIG. 3. […] Results are expressed as the mean value±SD. […] Bars indicate mean fold increase±SD mRNA expression level of the indicated gene relative the housekeeping gene GAPDH and normalized to untreated AMP cutlures. (D) Supernatants from allo-MLR/AMP co-cultures inhibit MLR lymphocyte proliferation. […] Cell proliferation was analyzed by ^3H-thymidine incorporation during the last 18 h of a 5 day culture. Results are expressed as the mean percent alloproliferation inhibition of quadruplicate cultures. […]

COc1ccc2c(c1)c(CC(=O)O)c(C)n2C(=O)c1ccc(Cl)cc1 [indomethacin]
allo T-cell proliferation: significantly inhibit
